According to article PMC12519282, “Reduction of Negative Charge in Mercaptoacetyl-Based Chelators Influences the Biodistribution of Prostate-Specific Membrane Antigen-Targeting Pseudopeptides Labeled with Technetium-99m” (ACS Pharmacology & Translational Science, 2025):
Read-outs that look alike come from different tables or passages of the source. Marks after values point to notes of the source that are not given here.

Legend:
PSMA [1] = target: T1, PSMA (Homo sapiens, UniProt Q04609); conditions: cited from earlier work
T1 construct: expressed in transfected cells; host or cells: PC3-pip (PSMA-transfected PC-3 prostate carcinoma cells), from Prof; Martin G. Pomper, Johns Hopkins University
T1 sequence (Q04609 whole entry): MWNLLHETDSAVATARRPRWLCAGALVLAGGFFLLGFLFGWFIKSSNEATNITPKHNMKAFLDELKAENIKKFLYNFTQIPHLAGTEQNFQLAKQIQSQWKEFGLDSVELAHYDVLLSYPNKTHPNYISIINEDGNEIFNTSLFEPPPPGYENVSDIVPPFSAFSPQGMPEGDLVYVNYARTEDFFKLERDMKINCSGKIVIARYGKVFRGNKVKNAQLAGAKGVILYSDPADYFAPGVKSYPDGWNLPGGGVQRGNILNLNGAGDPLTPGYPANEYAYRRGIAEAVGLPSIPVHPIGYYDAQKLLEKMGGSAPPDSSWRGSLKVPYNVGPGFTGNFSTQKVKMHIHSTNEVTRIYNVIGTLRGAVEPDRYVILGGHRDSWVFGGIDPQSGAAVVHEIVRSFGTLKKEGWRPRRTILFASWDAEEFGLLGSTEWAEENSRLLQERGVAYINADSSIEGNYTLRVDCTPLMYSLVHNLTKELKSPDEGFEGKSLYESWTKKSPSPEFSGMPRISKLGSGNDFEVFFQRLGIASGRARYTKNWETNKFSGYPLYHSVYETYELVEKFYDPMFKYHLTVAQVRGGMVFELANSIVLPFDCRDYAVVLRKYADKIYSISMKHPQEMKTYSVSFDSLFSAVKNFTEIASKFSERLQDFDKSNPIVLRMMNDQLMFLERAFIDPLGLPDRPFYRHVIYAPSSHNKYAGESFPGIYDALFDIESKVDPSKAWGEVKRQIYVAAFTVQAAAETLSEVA

PC3-pip xenografts [2] = conditions: in vivo; cited from earlier work
physchem = assay type: physicochemical; conditions: pH 7.4
Procedure: To evaluate the label’s stability, 10 μL (0.25 μg) of radiolabeled conjugates was incubated with 300× molar excess of cysteine or with PBS for 1 h at room temperature. The test was run in triplicate. The release of free technetium-99m was controlled by using iTLC and radio-HPLC analysis. The stability in serum was analyzed by mixing the radioconjugates (0.25 μg in 10 μL) with murine serum or PBS (40 μL) as a control. The samples were incubated for 1 h at 37 °C and analyzed by iTLC. The experiment was performed in triplicate. The octanol–water distribution coefficient (Log D) was determined experimentally by the addition of 100 pmol of the radiolabeled tracer to an Eppendorf tube containing PBS (500 μL) and n-octanol (500 μL), pH ∼ 7.4. The solution was vortexed and centrifuged, and aliquots (50 μL) from each phase were collected and measured using a gamma counter. The experiment was performed in triplicate.

PSMA [3] = target: T1, PSMA; experiment: binding kinetics in real time on living PC3-pip cells (LigandTracer Yellow); conditions: 5 nM tracer, 1:2 model (1:1 for BQ0413)
Procedure: The binding kinetics of technetium-99m-labeled BQ0413, BQ0500, and BQ0501 were determined in PC3-pip cells in real-time using LigandTracer Yellow (Ridgeview Instruments AB, Uppsala, Sweden). The activity binding was recorded with 5 nM radiolabeled tracers for 150 min. After the binding kinetics were measured, the medium containing the labeled tracer was replaced with fresh medium, and the dissociation was monitored over 7 h. The association rate (k a) and the dissociation rate (k d) were computed using a 1:2 kinetic binding model in TraceDrawer software (Ridgeview Instruments AB, Uppsala, Sweden), and the equilibrium dissociation constant K D was calculated.

PC3-pip xenografts [4] = experiment: biodistribution and tumor targeting in PC3-pip tumor-bearing mice; assay type: in vivo; conditions: PC3-pip tumor-bearing mice, 5 nmol/mouse iv
Source text: The injected masses for the in vivo experiments were chosen based on the findings for [^99mTc]-Tc-BQ0413: to study the general biodistribution of radiolabeled tracers in normal mice (NMRI), 40 pmol of tracer was used to avoid blocking of PSMA-mediated uptake in kidneys and salivary glands, to study tumor targeting, 5 nmol of tracer was used to decrease uptake in PSMA-expressing organs.
PSMA-expressing PCa xenografts were implanted in BALB/c nu/nu mice by subcutaneous injection of the PC3-pip cell suspension in PBS (10^7 cells/animal in 100 μL). The average animal weight in the experiment was 18 ± 2 g. The average tumor weight was 0.4 ± 0.2 g. For in vivo specificity control, 10^7 cells/animal PSMA-negative PC-3 cells were implanted. The average animal weight was 18 ± 1 g. The average tumor weight was 0.1 ± 0.1 g. Four mice per data point were used in the in vivo experiments.
For tumor-bearing mice, each mouse was intravenously injected with 5 nmol of [^99mTc]-Tc-BQ0413, [^99mTc]-Tc-BQ0500, and [^99mTc]-Tc-BQ0501 (60 kBq; the mass of the injected compound was adjusted with an unlabeled tracer). The mice were euthanized after lethal intraperitoneal injection of ketamine/xylazine, followed by exsanguination 1 and 3 h pi, similarly to the procedure described above.

Compound: O=C(O)CCc1ccc(O)c(CN(CCN(CC(=O)O)Cc2cc(CCC(=O)NCCCCCC(=O)NCCCC[C@H](NC(=O)N[C@@H](CCC(=O)O)C(=O)O)C(=O)O)ccc2O)CC(=O)O)c1 [PSMA-11]
- Kd (PSMA [1]; nonlabeled PSMA-11, ref 29 (inferred, citation mark not shown)): 0.5 ± 0.2 nM

Compound: CC(=O)NC(CCCCNC(=O)CNC(=O)C(CCC(=O)O)NC(=O)C(CCC(=O)O)NC(=O)C(CCC(=O)O)NC(=O)CS)C(=O)NCCCCCCCC(=O)NC(Cc1ccc(O)cc1)C(=O)NC(Cc1ccc2ccccc2c1)C(=O)NCCCCC(NC(=O)NC(CCC(=O)O)C(=O)O)C(=O)O (stereo not shown) [[^99mTc]Tc-BQ0413, metal not drawn, reference compound]
- excretion pathway (PC3-pip xenografts [2]): renal
- tumor uptake (PC3-pip xenografts [2]): 33 ± 3%IA/g (3 h)
- tumor-to-blood ratio (PC3-pip xenografts [2]): 314 ± 73 (3 h)
- Log D (octanol–water distribution coefficient) (physchem): −2.5 ± 0.1
- B max1 (binding maximum) (PSMA [3]): 947 CPS
- Kd (PSMA [3]; read-out: K D1): 0.089 nM
- Kd (PSMA [1]; PC3-pip, ref 15 (inferred, reference cell empty)): 0.033 nM
- activity in carcass (PC3-pip xenografts [4]; 1 h pi): 8 ± 2 ^b %IA/sample
- activity in intestines with content (PC3-pip xenografts [4]; 1 h pi): 1.7 ± 0.4 %IA/sample
- activity uptake in blood (PC3-pip xenografts [4]; 1 h pi): 1.0 ± 0.3 ^b %IA/g
- activity uptake in bone (PC3-pip xenografts [4]; 1 h pi): 0.9 ± 0.3 ^b %IA/g
- activity uptake in kidney (PC3-pip xenografts [4]; 1 h pi): 23 ± 3 ^b %IA/g
- activity uptake in liver (PC3-pip xenografts [4]; 1 h pi): 1.3 ± 0.4 ^b %IA/g
- activity uptake in lung (PC3-pip xenografts [4]; 1 h pi): 1.2 ± 0.2 ^b %IA/g
- activity uptake in muscle (PC3-pip xenografts [4]; 1 h pi): 0.3 ± 0.1 ^b %IA/g
- activity uptake in pancreas (PC3-pip xenografts [4]; 1 h pi): 0.6 ± 0.1 ^b %IA/g
- activity uptake in salivary gland (PC3-pip xenografts [4]; 1 h pi): 1.4 ± 0.2 ^b %IA/g
- activity uptake in small intestines (PC3-pip xenografts [4]; 1 h pi): 0.5 ± 0.1^b %IA/g
- activity uptake in spleen (PC3-pip xenografts [4]; 1 h pi): 1.9 ± 0.8 %IA/g
- activity uptake in stomach (PC3-pip xenografts [4]; 1 h pi): 1.5 ± 0.4 %IA/g
- activity uptake in tumor (PC3-pip xenografts [4]; 1 h pi): 19 ± 4 %IA/g
- tumor-to-blood ratio (PC3-pip xenografts [4]; 1 h pi): 22 ± 12 ^b
- tumor-to-bone ratio (PC3-pip xenografts [4]; 1 h pi): 27 ± 17 ^b
- tumor-to-kidney ratio (PC3-pip xenografts [4]; 1 h pi): 0.9 ± 0.3 ^b
- tumor-to-liver ratio (PC3-pip xenografts [4]; 1 h pi): 17 ± 9 ^b
- tumor-to-lung ratio (PC3-pip xenografts [4]; 1 h pi): 16 ± 5 ^b
- tumor-to-muscle ratio (PC3-pip xenografts [4]; 1 h pi): 62 ± 25 ^b
- tumor-to-pancreas ratio (PC3-pip xenografts [4]; 1 h pi): 38 ± 5 ^b
- tumor-to-salivary gland ratio (PC3-pip xenografts [4]; 1 h pi): 14 ± 3 ^b
- tumor-to-small intestines ratio (PC3-pip xenografts [4]; 1 h pi): 41 ± 17 ^b
- tumor-to-spleen ratio (PC3-pip xenografts [4]; 1 h pi): 9 ± 3 ^b
- tumor-to-stomach ratio (PC3-pip xenografts [4]; 1 h pi): 13 ± 2 ^b
- activity in carcass (PC3-pip xenografts [4]; 3 h pi): 1.7 ± 0.3 %IA/sample
- activity in intestines with content (PC3-pip xenografts [4]; 3 h pi): 1.7 ± 0.2 %IA/sample
- activity uptake in blood (PC3-pip xenografts [4]; 3 h pi): 0.17 ± 0.04 %IA/g
- activity uptake in bone (PC3-pip xenografts [4]; 3 h pi): 0.2 ± 0.1 %IA/g
- activity uptake in kidney (PC3-pip xenografts [4]; 3 h pi): 9 ± 2 %IA/g
- activity uptake in liver (PC3-pip xenografts [4]; 3 h pi): 0.3 ± 0.1 %IA/g
- activity uptake in lung (PC3-pip xenografts [4]; 3 h pi): 0.3 ± 0.1 %IA/g
- activity uptake in muscle (PC3-pip xenografts [4]; 3 h pi): 0.06 ± 0.02 %IA/g
- activity uptake in pancreas (PC3-pip xenografts [4]; 3 h pi): 0.13 ± 0.02 %IA/g
- activity uptake in salivary gland (PC3-pip xenografts [4]; 3 h pi): 0.5 ± 0.1 %IA/g
- activity uptake in small intestines (PC3-pip xenografts [4]; 3 h pi): 0.2 ± 0.1 %IA/g
- activity uptake in spleen (PC3-pip xenografts [4]; 3 h pi): 0.9 ± 0.5 %IA/g
- activity uptake in stomach (PC3-pip xenografts [4]; 3 h pi): 0.6 ± 0.2 %IA/g
- activity uptake in tumor (PC3-pip xenografts [4]; 3 h pi): 17 ± 3 %IA/g
- tumor-to-blood ratio (PC3-pip xenografts [4]; 3 h pi): 94 ± 3
- tumor-to-bone ratio (PC3-pip xenografts [4]; 3 h pi): 114 ± 29
- tumor-to-kidney ratio (PC3-pip xenografts [4]; 3 h pi): 1.9 ± 0.3
- tumor-to-liver ratio (PC3-pip xenografts [4]; 3 h pi): 48 ± 5
- tumor-to-lung ratio (PC3-pip xenografts [4]; 3 h pi): 52 ± 8
- tumor-to-muscle ratio (PC3-pip xenografts [4]; 3 h pi): 284 ± 19
- tumor-to-pancreas ratio (PC3-pip xenografts [4]; 3 h pi): 135 ± 11
- tumor-to-salivary gland ratio (PC3-pip xenografts [4]; 3 h pi): 31 ± 3
- tumor-to-small intestines ratio (PC3-pip xenografts [4]; 3 h pi): 126 ± 57
- tumor-to-spleen ratio (PC3-pip xenografts [4]; 3 h pi): 16 ± 4
- tumor-to-stomach ratio (PC3-pip xenografts [4]; 3 h pi): 24 ± 2
